In US8613914B2, “Peptidomimetic sulfamide compounds and antiviral uses thereof” (Novartis AG, priority 2009, dated 2013):

biological target: HCV NS3-4A serine protease (full-length NS3-4A protein) (Hepatitis C virus genotype 1a (isolate 1) (HCV), UniProt P26664); test: HCV NS3-4A protease assay; assay type: biochemical, HCV genotype 1a; conditions: strain HCV-1, fluorogenic peptide substrate, read-out: Protease assay Ex. 12 IC50
Description: The inhibitory activity of certain compounds of Table A against HCV NS3-4A serine protease is determined in a homogenous assay using the full-length NS3-4A protein (genotype 1a, strain HCV-1) and a commercially available internally-quenched fluorogenic peptide substrate as described by Taliani, M., et al. 1996 Anal. Biochem. 240:60-67, which is incorporated by reference in its entirety.

Sequence of HCV NS3-4A serine protease (full-length NS3-4A protein) (P26664 1027-1657): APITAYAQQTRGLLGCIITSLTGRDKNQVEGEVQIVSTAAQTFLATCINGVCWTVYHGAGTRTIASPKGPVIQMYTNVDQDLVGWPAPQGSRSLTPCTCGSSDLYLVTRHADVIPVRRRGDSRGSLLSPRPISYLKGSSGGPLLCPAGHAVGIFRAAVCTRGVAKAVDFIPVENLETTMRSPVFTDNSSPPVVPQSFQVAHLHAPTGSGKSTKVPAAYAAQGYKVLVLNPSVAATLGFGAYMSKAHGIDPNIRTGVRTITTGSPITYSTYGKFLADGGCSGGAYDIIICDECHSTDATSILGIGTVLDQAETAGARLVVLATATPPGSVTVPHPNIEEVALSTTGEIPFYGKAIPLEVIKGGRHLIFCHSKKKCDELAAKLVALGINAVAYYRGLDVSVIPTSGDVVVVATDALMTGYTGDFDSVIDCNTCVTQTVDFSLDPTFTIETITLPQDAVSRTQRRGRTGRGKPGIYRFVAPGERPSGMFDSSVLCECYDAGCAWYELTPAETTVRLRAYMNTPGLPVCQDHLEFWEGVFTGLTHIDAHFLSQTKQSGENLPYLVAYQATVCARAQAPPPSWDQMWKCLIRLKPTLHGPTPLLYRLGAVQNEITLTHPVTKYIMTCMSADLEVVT
Sequence of HCV NS3-4A serine protease (full-length NS3-4A protein) (P26664 1658-1711 partner): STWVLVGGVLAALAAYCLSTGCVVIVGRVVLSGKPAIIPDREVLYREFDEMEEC

SMILES	IC50 [nM]
C=C[C@@H]1C[C@]1(NC(=O)[C@@H]1C[C@@]2(CN1C(=O)[C@@H](NC(=O)[C@@H](NC(=O)[C@@H]1Cc3[nH]cnc3CN1)C(C)(C)C)C(C)(C)C)C(C)(C)C21CCC1)C(=O)NS(=O)(=O)N1CCCC1 [Compound 29, (5R,8S)-7-[(2S)-2-{[(2S)-3,3-dimethyl-2-{[(6S)-4,5,6,7-tetrahydro-1H-imidazo[4,5-c]pyridin-6-ylcarbonyl]amino}butanoyl]amino}-3,3-dimethylbutanoyl]-10,10-dimethyl-N-{(1R,2S)-1-[(pyrrolidin-1-ylsulfonyl)carbamoyl]-2-vinylcyclopropyl}-7-azadispiro[3.0.4.1]decane-8-carboxamide]	40
CC[C@@H]1C[C@]1(NC(=O)[C@@H]1C[C@@]2(CN1C(=O)[C@@H](NC(=O)[C@@H](NC(=O)[C@@H]1CCCN1C(C)C)C1CCCCC1)C(C)(C)C)C(C)(C)C21CCC1)C(=O)NS(=O)(=O)N(CC)CC [Compound 117, (5R,8S)-7-[(2S)-2-{[(2S)-2-cyclohexyl-2-({[(2S)-1-isopropylpyrrolidin-2-yl]carbonyl}amino)acetyl]amino}-3,3-dimethylbutanoyl]-N-[(1R,2R)-1-{[(diethylamino)sulfonyl]carbamoyl}-2-ethylcyclopropyl]-10,10-dimethyl-7-azadispiro[3.0.4.1]decane-8-carboxamide]	5.5
C=C[C@@H]1C[C@]1(NC(=O)[C@@H]1C[C@@]2(CN1C(=O)[C@@H](NC(=O)[C@@H](NC(=O)[C@H]1CCCCN1C(C)C)C1CCCCC1)C(C)(C)C)C(C)(C)C21CCC1)C(=O)NS(=O)(=O)N(CC)CC [Compound 65, (5R,8S)-7-[(2S)-2-{[(2S)-2-cyclohexyl-2-({[(2R)-1-isopropylpiperidin-2-yl]carbonyl}amino)acetyl]amino}-3,3-dimethylbutanoyl]-N-[(1R,2S)-1-{[(diethylamino)sulfonyl]carbamoyl}-2-vinylcyclopropyl]-10,10-dimethyl-7-azadispiro[3.0.4.1]decane-8-carboxamide]	4.5
C=C[C@@H]1C[C@]1(NC(=O)[C@@H]1C[C@@]2(CN1C(=O)[C@@H](NC(=O)[C@@H](NC(=O)[C@@H]1CCCCN1C(C)C)C1CCCCC1)C(C)(C)C)C(C)(C)C21CCC1)C(=O)NS(=O)(=O)NC1CCC1 [Compound 57, (5R,8S)-N-[(1R,2S)-1-{[(cyclobutylamino)sulfonyl]carbamoyl}-2-vinylcyclopropyl]-7-[(2S)-2-{[(2S)-2-cyclohexyl-2-({[(2S)-1-isopropylpiperidin-2-yl]carbonyl}amino)acetyl]amino}-3,3-dimethylbutanoyl]-10,10-dimethyl-7-azadispiro[3.0.4.1]decane-8-carboxamide]	6.5
CC[C@@H]1C[C@]1(NC(=O)[C@@H]1C[C@@]2(CN1C(=O)[C@@H](NC(=O)[C@@H](NC(=O)[C@@H]1CCCCN1C(C)C)C1CCCCC1)C(C)(C)C)C(C)(C)C21CCC1)C(=O)NS(=O)(=O)N(CC)CC [Compound 203, (5R,8S)-7-[(2S)-2-{[(2S)-2-cyclohexyl-2-({[(2S)-1-isopropylpiperidin-2-yl]carbonyl}amino)acetyl]amino}-3,3-dimethylbutanoyl]-N-(1-{[(diethylamino)sulfonyl]carbamoyl}-2-ethylcyclopropyl)-10,10-dimethyl-7-azadispiro[3.0.4.1]decane-8-carboxamide]	8
C=C[C@@H]1C[C@]1(NC(=O)[C@@H]1C[C@@]2(CN1C(=O)[C@@H](NC(=O)[C@@H](NC(=O)c1[nH]c(C)c(C)c1C(C)=O)C(C)(C)C)C(C)(C)C)C(C)(C)C21CCC1)C(=O)NS(=O)(=O)N1CCCC1 [Compound 161, (5R,8S)-7-[(2S)-2-{[(2S)-2-{[(3-acetyl-4,5-dimethyl-1H-pyrrol-2-yl)carbonyl]amino}-3,3-dimethylbutanoyl]amino}-3,3-dimethylbutanoyl]-10,10-dimethyl-N-{(1R,2S)-1-[(pyrrolidin-1-ylsulfonyl)carbamoyl]-2-vinylcyclopropyl}-7-azadispiro[3.0.4.1]decane-8-carboxamide]	65
C=C[C@@H]1C[C@]1(NC(=O)[C@@H]1C[C@@]2(CN1C(=O)[C@@H](NC(=O)[C@@H](NC(=O)c1ccnc3ccccc13)C1CCCCC1)C(C)(C)C)C(C)(C)C21CCC1)C(=O)NS(=O)(=O)N1CCCC1 [Compound 197, (5R,8S)-7-[(2S)-2-({cyclohexyl[(quinolin-4-ylcarbonyl)amino]acetyl}amino)-3,3-dimethylbutanoyl]-10,10-dimethyl-N-{(1R,2S)-1-[(pyrrolidin-1-ylsulfonyl)carbamoyl]-2-vinylcyclopropyl}-7-azadispiro[3.0.4.1]decane-8-carboxamide]	40
C=C[C@@H]1C[C@]1(NC(=O)[C@@H]1C[C@@]2(CN1C(=O)[C@@H](NC(=O)[C@@H](NC(=O)[C@@H]1CCCCN1C(C)C)C1CCCCC1)C(C)(C)C)C(C)(C)C21CCC1)C(=O)NS(=O)(=O)N(C)CC(F)F [Compound 83, (5R,8S)-7-[(2S)-2-{[(2S)-2-cyclohexyl-2-({[(2S)-1-isopropylpiperidin-2-yl]carbonyl}amino)acetyl]amino}-3,3-dimethylbutanoyl]-N-[(1R,2S)-1-({[(2,2-difluoroethyl)(methyl)amino]sulfonyl}carbamoyl)-2-vinylcyclopropyl]-10,10-dimethyl-7-azadispiro[3.0.4.1]decane-8-carboxamide]	2
C=C[C@@H]1C[C@]1(NC(=O)[C@@H]1C[C@@]2(CN1C(=O)[C@@H](NC(=O)[C@@H](NC(=O)C(C)(C)N1CCCC1)C(C)(C)C)C(C)(C)C)C(C)(C)C21CCC1)C(=O)NS(=O)(=O)N1CCCC1 [Compound 10, (5R,8S)-7-[(2S)-2-({(2S)-3,3-dimethyl-2-[(2-methyl-2-pyrrolidin-1-ylpropanoyl)amino]butanoyl}amino)-3,3-dimethylbutanoyl]-10,10-dimethyl-N-{(1R,2S)-1-[(pyrrolidin-1-ylsulfonyl)carbamoyl]-2-vinylcyclopropyl}-7-azadispiro[3.0.4.1]decane-8-carboxamide]	65
C=C[C@@H]1C[C@]1(NC(=O)[C@@H]1C[C@@]2(CN1C(=O)[C@@H](NC(=O)[C@@H](NC(=O)[C@@H]1CCCCN1C(C)C)C1CCCCC1)C1(C)CCOCC1)C(C)(C)C21CCC1)C(=O)NS(=O)(=O)N(CC)CC [Compound 150, (5R,8S)-7-[(2S)-2-{[(2S)-2-cyclohexyl-2-({[(2S)-1-isopropylpiperidin-2-yl]carbonyl}amino)acetyl]amino}-2-(4-methyltetrahydro-2H-pyran-4-yl)acetyl]-N-[(1R,2S)-1-{[(diethylamino)sulfonyl]carbamoyl}-2-vinylcyclopropyl]-10,10-dimethyl-7-azadispiro[3.0.4.1]decane-8-carboxamide]	2.4
C=C[C@@H]1C[C@]1(NC(=O)[C@@H]1C[C@@]2(CN1C(=O)[C@@H](NC(=O)[C@@H](NC(=O)[C@@H]1CCCCN1C(C)C)C1CCOCC1)C1(C)CCOCC1)C(C)(C)C21CCC1)C(=O)NS(=O)(=O)N1CCCC1 [Compound 127, (5R,8S)-7-[(2S)-2-{[(2S)-2-({[(2S)-1-isopropylpiperidin-2-yl]carbonyl}amino)-2-(tetrahydro-2H-pyran-4-yl)acetyl]amino}-2-(4-methyltetrahydro-2H-pyran-4-yl)acetyl]-10,10-dimethyl-N-{(1R,2S)-1-[(pyrrolidin-1-ylsulfonyl)carbamoyl]-2-vinylcyclopropyl}-7-azadispiro[3.0.4.1]decane-8-carboxamide]	4
C=C[C@@H]1C[C@]1(NC(=O)[C@@H]1C[C@@]2(CN1C(=O)[C@@H](NC(=O)[C@@H](NC(=O)[C@@H]1CCCN1CC)C1CCCCC1)C(C)(C)C)C(C)(C)C21CCC1)C(=O)NS(=O)(=O)N(CC)C(C)C [Compound 111, (5R,8S)-7-[(2S)-2-{[(2S)-2-cyclohexyl-2-({[(2S)-1-ethylpyrrolidin-2-yl]carbonyl}amino)acetyl]amino}-3,3-dimethylbutanoyl]-N-[(1R,2S)-1-({[ethyl(isopropyl)amino]sulfonyl}carbamoyl)-2-vinylcyclopropyl]-10,10-dimethyl-7-azadispiro[3.0.4.1]decane-8-carboxamide]	8
C=C[C@@H]1C[C@]1(NC(=O)[C@@H]1C[C@@]2(CN1C(=O)[C@@H](NC(=O)[C@@H](NC(=O)[C@@H]1CCCN1CC)C1(C)CCCCC1)C1(C)CCOCC1)C(C)(C)C21CCC1)C(=O)NS(=O)(=O)N1CCCC1 [Compound 146, (5R,8S)-7-[(2S)-2-{[(2S)-2-({[(2S)-1-ethylpyrrolidin-2-yl]carbonyl}amino)-2-(1-methylcyclohexyl)acetyl]amino}-2-(4-methyltetrahydro-2H-pyran-4-yl)acetyl]-10,10-dimethyl-N-{(1R,2S)-1-[(pyrrolidin-1-ylsulfonyl)carbamoyl]-2-vinylcyclopropyl}-7-azadispiro[3.0.4.1]decane-8-carboxamide]	3
C=C[C@@H]1C[C@]1(NC(=O)[C@@H]1C[C@@]2(CN1C(=O)[C@@H](NC(=O)[C@@H](NC(=O)[C@@H]1CCCCN1C(C)C)c1ccccc1)C(C)(C)C)C(C)(C)C21CCC1)C(=O)NS(=O)(=O)N1CCCC1 [Compound 104, (5R,8S)-7-[(2S)-2-{[(2S)-2-({[(2S)-1-isopropylpiperidin-2-yl]carbonyl}amino)-2-phenylacetyl]amino}-3,3-dimethylbutanoyl]-10,10-dimethyl-N-{(1R,2S)-1-[(pyrrolidin-1-ylsulfonyl)carbamoyl]-2-vinylcyclopropyl}-7-azadispiro[3.0.4.1]decane-8-carboxamide]	15
